Experiments:
[1] = female, human, in vivo
Protocol: (§1) In order to evaluate the bioavailability of a peptide drug (calcitonin) administered via particle injection, with and without post administration patch occlusion (relative to subcutaneous injection), the following clinical study was carried out.
(§2) For subcutaneous injections, Miacalcic® calcitonin product was obtained from a commercial source and contained approximately 25 μg (100 IU) of salmon calcitonin (sCT) per ml. For particle injections, the calcitonin composition was formed from sCT at 8% w/w, PVP excipient at 2% w/w, in mannitol. The calcitonin composition was then lyophilized, compressed and then milled to produce particles suitable for use in a particle injection device. […] The 38-53 μm sieve fraction was obtained using a standard mesh screen.
(§3) All particle injections were carried out using a PowderJect® model ND1 needleless syringe fitted with a porous silencer (obtained from PowderJect Technologies, Inc., Fremont, Calif.). […] The devices were operated as described in the '796 patent, using a 60 bar gas source, in order to deliver the sCT particles.
(§4) Occlusive patches were produced by cutting Parafilm® discs which were held in-place by an adhesive dressing. In experimental groups receiving an occlusive dressing, the patch was placed on the skin covering the site of particle administration after sCT delivery and left in-place for the duration of the study (4 hours).
(§5) The overall approach involved measuring pharmacokinetic and pharmacodynamic response parameters following the sCT dose in 24 healthy female subjects. The trial was designed as a single center, open, parallel group trial.
(§6) Blood samples were collected via an indwelling catheter prior to and at 2, 5, 10, 20, 30, 45, 60, 90, 120, 180 and 240 minutes following administration of the calcitonin dose. sCT plasma concentrations were determined by ELISA (PPD Development, VA).

clinical = details: female, human, in vivo
Protocol: as §1, §2, §3, §4, §5, §6

## CC(C)C[C@H](NC(=O)[C@H](CCCCN)NC(=O)CNC(=O)[C@H](CC(C)C)NC(=O)[C@@H](NC(=O)[C@@H]1CSSC[C@H](N)C(=O)N[C@@H](CO)C(=O)N[C@@H](CC(N)=O)C(=O)N[C@@H](CC(C)C)C(=O)N[C@@H](CO)C(=O)N[C@@H]([C@@H](C)O)C(=O)N1)C(C)C)C(=O)N[C@@H](CO)C(=O)N[C@@H](CCC(N)=O)C(=O)N[C@@H](CCC(=O)O)C(=O)N[C@@H](CC(C)C)C(=O)N[C@@H](Cc1c[nH]cn1)C(=O)N[C@@H](CCCCN)C(=O)N[C@@H](CC(C)C)C(=O)N[C@@H](CCC(N)=O)C(=O)N[C@H](C(=O)N[C@@H](Cc1ccc(O)cc1)C(=O)N1CCC[C@H]1C(=O)N[C@@H](CCCNC(=N)N)C(=O)N[C@H](C(=O)N[C@@H](CC(N)=O)C(=O)N[C@H](C(=O)NCC(=O)N[C@@H](CO)C(=O)NCC(=O)N[C@H](C(=O)N1CCC[C@H]1C(N)=O)[C@@H](C)O)[C@@H](C)O)[C@@H](C)O)[C@@H](C)O [sCT, salmon calcitonin]
[1]
  mean bioavailability (BA) relative to the SC injection: 5.1%
clinical; sc
  Tmax: 20 min
clinical; topical or ocular, 300 ug
  Tmax: 5 min
